Reference: patent publication US7776868B2, “Substituted bicyclic and tricyclic thieno[2,3-d]pyrimidines as A2A adenosine receptor antagonists” (Gilead Palo Alto, Inc., priority 2006, dated 2010)

The compounds below were run against A2A adenosine receptor (UniProt P29274) (assay: A2A radioligand competitive binding assay (3H-MSX-2 displacement)). Details: competitive binding vs 2 nM 3H-MSX-2, 15 ug A2A membrane, 23° C., 2 hours.
Design: species or system human
Excerpt: A tritiated adenosine A2A antagonist, 3-(3-hydroxypropyl)-7-methyl-8-(m-methoxystyryl)-1-propargylxanthine, (3H-MSX-2, specific activity: 80 Ci/mmol), was purchased from American Radiolabeled Chemicals, Inc (St. Louis, Mo.). A tritiated adenosine A1 antagonist, 1,3-Dipropyl-8-cyclopentylxanthine ([^3H]DPCPX, specific activity: 120 Ci/mmol) was purchased from Perkin Elmer (Boston, Mass.). A tritiated adenosine A2B antagonist, 4-(2-[7-amino-2-(2-furyl) [1,2,4]triazolo[2,3-a][1,3,5]triazin-5-ylamino]ethyl)phenol ([^3H]ZM241385 specific activity: 27.4 Ci/mmol) was purchased from American Radiolabeled Chemicals, Inc (St. Louis, Mo.). Adenosine Deaminase (ADA) was purchased from Roche Molecular Biochemicals (Nutley, N.J.). GTP was purchased from Sigma. Concentrated stock solution (10 mM) of compounds was dissolved in dimethylsulfoxide (DMSO), stored at −20° C., and diluted in Tris-EDTA buffer (50 mM Tris and 1 mM EDTA, 10 mM MgCl2, pH 7.4) for use in experiments. The final content of dimethylsulfoxide in Tris-EDTA buffer during experiments was not more than 1%. Male Sprague Dawley rats, weighted 250-400 g, 8-10 weeks old, were purchased from Charles River Labs (Wilmington, Mass.).
HEK293 (Human Embryonic Kidney 293) cells stably expressing human A2A adenosine receptor or human A2B adenosine receptor were maintained in DMEM supplemented with 10% fetal bovine serum, 2 mM L-glutamine, 100 IU/ml penicillin, 50 μg/ml streptomycin and 2 μg/ml puromycin. CHO (Chinese Hamster Ovary) cells stably expressing human A1 adenosine receptor or human A3 adenosine receptor were maintained in F12K medium supplemented with 10% fetal bovine serum, 2 mM L-glutamine, 100 IU penicillin, 50 μg/ml streptomycin and 8 μg/ml puromycin. PC12 (rat pheochromocytoma) cells were cultured in F12K medium supplemented with 10% horse serum and 2.5% fetal bovine serum, 2 mM L-glutamine, 100 IU/ml penicillin, and 50 μg/ml streptomycin. All cells were maintained at 37° C. in a humidified 5% CO2/95% air incubator and recultivated 2 times per week.
Cultured cells in 150 mm^2 dishes were washed once with PBS, detached by scrapping, collected with buffer A (10 mM HEPES, 10 mM EDTA, pH 7.4) containing protease inhibitor cocktail. Cells were then homogenized by a handheld homogenizer at a speed of 4.5 for 1 min. The homogenate was centrifuged by a Beckman ultracentrifuge at a speed of 29,000×g for 15 min. The pellets were resuspended in buffer HE (10 mM HEPES, 1 mM EDTA, pH 7.4, with protease inhibitor cocktail), centrifuged again at 29,000×g for 15 min. The crude membrane was resuspended using buffer HE, and protein concentration was measured by the method of Lowery with BSA as standard. Similar procedures were used for membrane preparation for fresh rat tissues. All experimental procedures were done at 4° C. Membranes were aliquot and kept at −80° C.
The binding assays utilized 15 ug of A2A membrane (human recombinant A2A membrane, rat striatal membrane, or PC 12 cell membrane) that had been treated with adenosine deaminase and 50 mM Tris-EDTA buffer (pH=7.4) followed by mixing 2 μL of serially diluted DMSO stock solution of the compounds of this invention at concentrations ranging from 10 μM to 0.1 nM or the control received 2 μL of DMSO alone, then the tritiated antagonist 3-(3-hydroxypropyl)-7-methyl-8-(m-methoxystyryl)-1-propargylxanthine (3H-MSX-2) in Tris-EDTA buffer (50 mM Tris, 1 mM EDTA, 10 mM MgCl2, pH of 7.4) was added to achieve a final concentration of 2 nM. After incubation at 23° C. for 2 hours, the solutions were filtered using a membrane harvester with multiple washing of the membranes (3×). The filter plates were counted in scintillation cocktail affording the amount of displacement ^3H-MSX-2 by the competitive binding compositions of this invention. Radioligand binding data was analyzed using GraphPad Prism version 4.0 (San Diego, Calif.). […]

| Ki [nM] | SMILES |
| --- | --- |
| 38 | CCn1c(=O)[nH]c2sc(/C=C/c3ccccc3OC)c(C)c2c1=O [XVII, 6-[(1E)-2-(2-methoxyphenyl)vinyl]-3-ethyl-5-methyl-1,3-dihydrothiopheno[2,3-d]pyrimidine-2,4-dione] |
| 104 | CCn1c(=O)[nH]c2sc(/C=C/c3cccc(OC)c3)c(C)c2c1=O [XVI, 6-[(1E)-2-(3-methoxyphenyl)vinyl]-3-ethyl-5-methyl-1,3-dihydrothiopheno[2,3-d]pyrimidine-2,4-dione] |
| 33 | CCn1c(=O)[nH]c2sc(/C=C/c3cccnc3)c(C)c2c1=O [XII, 6-((1E)-2-(3-pyridyl)vinyl)-3-ethyl-5-methyl-1,3-dihydrothiopheno[2,3-d]pyrimidine-2,4-dione] |
| 277 | COc1ccc(/C=C/c2sc3[nH]c(=O)n(CC(C)C)c(=O)c3c2C)cc1OC [XI, 6-[(1E)-2-(3,4-dimethoxyphenyl)vinyl]-5-methyl-3-(2-methylpropyl)-1,3-dihydrothiopheno[2,3-d]pyrimidine-2,4-dione] |
| 189 | CCn1c(=O)[nH]c2sc(/C=C/c3ccc(F)cc3)c(C)c2c1=O [IV, 6-[(1E)-2-(4-fluorophenyl)vinyl]-3-ethyl-5-methyl-1,3-dihydrothiopheno[2,3-d]pyrimidine-2,4-dione] |
| 182 | CCn1c(=O)[nH]c2sc(/C=C/c3ccc(C)cc3)c(C)c2c1=O [XIII, 6-[(1E)-2-(4-methylphenyl)vinyl]-3-ethyl-5-methyl-1,3-dihydrothiopheno[2,3-d]pyrimidine-2,4-dione] |
| 320 | CCn1c(=O)[nH]c2sc(/C=C/c3ccc(Cl)cc3)c(C)c2c1=O [VII, 6-[(1E)-2-(4-chlorophenyl)vinyl]-3-ethyl-5-methyl-1,3-dihydrothiopheno[2,3-d]pyrimidine-2,4-dione] |
| 866 | CCn1c(=O)c2c(C)c(/C=C/c3ccc(OC)c(OC)c3)sc2n(COCc2ccccc2)c1=O [II, 6-[(1E)-2-(3,4-dimethoxyphenyl)vinyl]-3-ethyl-5-methyl-1-[(phenylmethoxy)methyl]-1,3-dihydrothiopheno[2,3-d]pyrimidine-2,4-dione] |
| 776 | CCn1c(=O)[nH]c2sc(/C=C/c3ccc(-c4ccccc4)cc3)c(C)c2c1=O [VIII, 6-[(1E)-2-(4-phenylphenyl)vinyl]-3-ethyl-5-methyl-1,3-dihydrothiopheno[2,3-d]pyrimidine-2,4-dione] |
| 96 | CCn1c(=O)[nH]c2sc(/C=C/c3cc(OC)cc(OC)c3)c(C)c2c1=O [XVIII, 6-[(1E)-2-(3,5-dimethoxyphenyl)vinyl]-3-ethyl-5-methyl-1,3-dihydrothiopheno[2,3-d]pyrimidine-2,4-dione] |
| 390 | C#CCn1c(=O)c2c(C)c(/C=C/c3ccccc3)sc2n(C)c1=O [V, 6-((1E)-2-phenylvinyl)-1,5-dimethyl-3-prop-2-ynyl-1,3-dihydrothiopheno[2,3-d]pyrimidine-2,4-dione] |
| 242 | CCn1c(=O)[nH]c2sc(/C=C/c3cccc(F)c3)c(C)c2c1=O [VI, 6-[(1E)-2-(3-fluorophenyl)vinyl]-3-ethyl-5-methyl-1,3-dihydrothiopheno[2,3-d]pyrimidine-2,4-dione] |
| 674 | CCn1c(=O)[nH]c2sc(/C=C/c3ccc(C(F)(F)F)cc3)c(C)c2c1=O [IX, 6-{(1E)-2-[4-(trifluoromethyl)phenyl]vinyl}-3-ethyl-5-methyl-1,3-dihydrothiopheno[2,3-d]pyrimidine-2,4-dione] |
| 75 | CCn1c(=O)[nH]c2sc(/C=C/c3ccc(OC)c(OC)c3)c(C)c2c1=O [X, 6-[(1E)-2-(3,4-dimethoxyphenyl)vinyl]-3-ethyl-5-methyl-1,3-dihydrothiopheno[2,3-d]pyrimidine-2,4-dione] |
| 171 | CCn1c(=O)[nH]c2sc(/C=C/c3ccccc3)c(C)c2c1=O [III, 6-((1E)-2-phenylvinyl)-3-ethyl-5-methyl-1,3-dihydrothiopheno[2,3-d]pyrimidine-2,4-dione] |
| 220 | CCn1c(=O)c2c(C)c(/C=C/c3ccc(OC)c(OC)c3)sc2n(C)c1=O [I, 6-[(1E)-2-(3,4-dimethoxyphenyl)vinyl]-3-ethyl-1,5-dimethyl-1,3-dihydrothiopheno[2,3-d]pyrimidine-2,4-dione] |
| 119 | CCn1c(=O)[nH]c2sc(/C=C/c3ccc(OC)cc3)c(C)c2c1=O [XIV, 6-[(1E)-2-(4-methoxyphenyl)vinyl]-3-ethyl-5-methyl-1,3-dihydrothiopheno[2,3-d]pyrimidine-2,4-dione] |
| 170 | CCn1c(=O)[nH]c2sc(/C=C/c3ccccc3F)c(C)c2c1=O [XV, 6-[(1E)-2-(2-fluorophenyl)vinyl]-3-ethyl-5-methyl-1,3-dihydrothiopheno[2,3-d]pyrimidine-2,4-dione] |
